{"source": "patent US7432056B2", "about": "“Biallelic markers derived from genomic regions carrying genes involved in arachidonic acid metabolism” (Serono Genetics Institute S.A., priority 1999, dated 2008)", "assay": "Hepatotoxicity monitored by serum alanine aminotransferase (ALT) level in a clinical study of zileuton", "assay_type": "in vivo, human", "from_the_text": "In another preferred embodiment, the trait considered was a side effect upon drug treatment; the study involved two populations derived from a clinical study of the anti-asthmatic drug zileuton. The case population was composed of asthmatic individuals treated with Zileuton showing zileuton-associated hepatotoxicity monitored by the serum level of alanine aminotransferase (ALT) and the control population was composed of asthmatic individuals treated with zileuton and having no increased serum level of ALT. Inclusion criteria and association between the biallelic markers of the present invention and zileuton-associated hepatotoxicity are further described below in IV.E. Association of Biallelic Markers of the Invention with Hepatoxicity to Anti-Asthma Drug Zileuton and in Example 5, Association between Side Effects upon Treatment with the Anti-Asthmatic Drug Zileuton (Zyflo™) and the Biallelic Markers of the 12-lipoxygenase Gene.\nZileuton (Zyflo™) is an active inhibitor of 5-lipoxygenase, the enzyme that catalyzes the formation of leukotrienes from arachidonic acid, indicated for prophylaxis and chronic treatment of asthma. […] The ALT test (serum level of alanine aminotransferase) was used, which is considered the most sensitive indicator of liver injury.\nThe side effect examined in this study was the hepatotoxicity experienced by asthmatic individuals as a result of their treatment with Zileuton as part of a clinical study. […] Hepatotoxicity was monitored by measuring the serum levels of alanine aminotransferase (ALT), which is a sensitive indicator of liver cell damage.\nAs mentioned above, an association study is more informative if the case-control populations present extreme phenotypes. Therefore, the asthmatic individuals, which were selected for the side effect positive trait (ALT+), corresponded to 89 individuals that presented at least 3 times the upper limit of normal (ULN) level of ALT. On the other side, the asthmatic individuals that were selected for the side effect negative trait (ALT−) corresponded to 208 individuals that presented less than 1×ULN of ALT. ALT+ and ALT− populations corresponded to 4% and 35% respectively of the total asthmatic individuals that participated in this study."}
{"smiles": "CC(c1cc2ccccc2s1)N(O)C(N)=O", "note": "(stereo not shown) [Zileuton]", "values": [{"measurement": "asthmatic individuals that did not experience Zileuton-associated ALT increase compared to ALT levels prior to zileuton intake", "setting": "asthmatic individuals treated with zileuton in a clinical study, serum ALT", "result": "More than 90%"}, {"measurement": "ALT+ population (at least 3 times the upper limit of normal level of ALT) as share of total asthmatic individuals in the study", "setting": "asthmatic individuals treated with zileuton, 89 individuals", "result": 4, "unit": "%"}, {"measurement": "ALT- population (less than 1xULN of ALT) as share of total asthmatic individuals in the study", "setting": "asthmatic individuals treated with zileuton, 208 individuals", "result": 35, "unit": "%"}, {"measurement": "liver function abnormalities in zileuton-treated patients", "setting": "elevations of liver function tests during treatment, ALT test", "result": "A minority of zileuton-treated patients develop liver function abnormalities"}]}
